{"source": "patent US20220265549A1", "about": "“PHARMACEUTICAL COMPOSITION COMPRISING ENSIFENTRINE” (VERONA PHARMA PLC, priority 2019, published 2022)", "key": {"[1]": {"assay": "Particle size distribution of materials (laser diffraction)", "format": "physicochemical", "details": "volume particle size distribution", "excerpt": "Particle sizes are described herein by reference to the Dv50 value, which is the median particle size for a volume distribution. Thus, half the volume of the particles have diameters of less than the Dv50 value and half the volume of the particles have diameters of greater than the Dv50 value. This is a well-known manner in which to describe particle size distributions. The parameters of Dv10 and Dv90 may also be used to characterise a particle size distribution of a sample. 10% of the volume of particles have a diameter of less than the Dv10 value. 90% of the volume of the particles have a diameter of less than the Dv90 value.\nThe technique used to measure the Dv50 (and Dv10 and Dv90) values as stated herein is typically laser diffraction. For instance, the coarse lactose particles typically have a particle size distribution with a Dv50 value of from 40 μm to 80 μm as measured by laser diffraction and the fine lactose particles have a particle size distribution with a Dv50 value of from 5 μm to 10 μm as measured by laser diffraction.\nThe particle size distribution of low aqueous solubility materials, for instance the ensifentrine particles, may be as measured by laser diffraction using a wet powder dispersion system. For instance, the particle size distribution can be measured by laser diffraction using a Malvern Spraytec in conjunction with a wet dispersion cell. Typically, the instrument parameters for the Malvern Spraytec are as follows: • particle—standard opaque particle; • refractive index Particle—1.50; • refractive index (imaginary)—0.50; • density of particle—1.00; • refractive index of dispersant—1.33; • controller unit—1000 RPM; • measurement type—timed; • initial sampling time—30 s; • obscuration—20%-30%; • dispersant—1% Polysorbate 20 in deionised water.\nThe particle size distribution of materials soluble in water, for instance lactose particles, may be as measured by laser diffraction using a dry powder dispersion system. For instance, the particle size distribution can be measured by laser diffraction using a Malvern or Sympatec dry dispersion cell. […]"}, "patients with COPD [2]": {"tested_on": "patients with COPD", "assay": "Phase II clinical study, single dose part (FEV1)", "format": "in vivo, human", "experimental": "(§1) A 2-part, 37 patient, Phase II single and repeat dose clinical study with ensifentrine in patients with COPD was completed using DPI formulations 12, 13 and 14 (Table 6).\nEnsifentrine doses of 0.15, 0.5, 1.5, and 3 mg provided dose-dependent improvements from baseline in peak Forced Expiratory Volume in one second (FEV1) (over 4 hours) of up to 333 mL compared with placebo (p<0.01 for 1.5 mg and 3 mg doses)."}, "patients with COPD [3]": {"tested_on": "patients with COPD", "assay": "Phase II clinical study, repeat dose crossover part (FEV1)", "format": "in vivo, human", "details": "for Improvement from baseline in peak FEV1 (over 4 hours) on Day 7 compared with placebo: DPI; for Improvement in morning trough FEV1 on Day 7 compared with placebo: twice daily over 7 days, dose not identified", "experimental": "as §1\nThe second part of the study was a complete block crossover study using the same patients that were dosed in the first part of the study. Ensifentrine doses of 0.15 mg to 3 mg dosed twice daily over 7 days also provided dose-dependent, highly statistically significant and clinically meaningful improvements from baseline in peak FEV1 (over 4 hours) on Day 7 of 102, 175, 180, and 260 mL, respectively, compared with placebo (p≤0.0001 for all dose groups). The improvement in FEV1 was sustained over the 12 hour dosing interval as shown by clinically meaningful and statistically significant improvements in average FEV1 over 12 hours of up to 147 mL (p<0.05 for all dose groups) and in morning trough FEV1 on Day 7 of 98, 87, and 97 mL, respectively, compared with placebo (p≤0.001 for each dose)."}}}
{"smiles": "COc1cc2c(cc1OC)-c1c/c(=N\\c3c(C)cc(C)cc3C)n(CCNC(N)=O)c(=O)n1CC2", "note": "[Ensifentrine, 9,10-dimethoxy-2-(2,4,6-trimethylphenylimino)-3-(N-carbamoyl-2-aminoethyl)-3,4,6,7-tetrahydro-2H-pyrimido[6,1-a]isoquinolin-4-one]", "values": [{"measurement": "Dv10 (μm)", "setting": "[1]", "value": 0.5, "unit": "μm"}, {"measurement": "Dv50 (μm)", "setting": "[1]", "value": 1.3, "unit": "μm"}, {"measurement": "Dv90 (μm)", "setting": "[1]", "value": 3.6, "unit": "μm"}, {"measurement": "Improvement from baseline in peak FEV1 (over 4 hours) compared with placebo", "setting": "patients with COPD [2]; single doses of 0.15, 0.5, 1.5 and 3 mg by DPI, maximum across doses", "value": "up to 333 mL"}, {"measurement": "Bronchodilatory effect", "setting": "patients with COPD [2]; single doses up to 3 mg by DPI, over 12 hours, COPD patients", "value": "rapid, dose-dependent, and statistically significant bronchodilatory effect"}, {"measurement": "Improvement in average FEV1 over 12 hours", "setting": "patients with COPD [3]; 0.15 mg to 3 mg twice daily over 7 days, maximum across doses", "value": "up to 147 mL"}, {"measurement": "Improvement from baseline in peak FEV1 (over 4 hours) on Day 7 compared with placebo", "setting": "patients with COPD [3]; 0.15 mg twice daily over 7 days", "value": 102, "unit": "mL"}, {"measurement": "Improvement from baseline in peak FEV1 (over 4 hours) on Day 7 compared with placebo", "setting": "patients with COPD [3]; 0.5 mg twice daily over 7 days", "value": 175, "unit": "mL"}, {"measurement": "Improvement from baseline in peak FEV1 (over 4 hours) on Day 7 compared with placebo", "setting": "patients with COPD [3]; 1.5 mg twice daily over 7 days", "value": 180, "unit": "mL"}, {"measurement": "Improvement from baseline in peak FEV1 (over 4 hours) on Day 7 compared with placebo", "setting": "patients with COPD [3]; 3 mg twice daily over 7 days", "value": 260, "unit": "mL"}, {"measurement": "Improvement in morning trough FEV1 on Day 7 compared with placebo", "setting": "patients with COPD [3]; first of three listed values", "value": 98, "unit": "mL"}, {"measurement": "Improvement in morning trough FEV1 on Day 7 compared with placebo", "setting": "patients with COPD [3]; second of three listed values", "value": 87, "unit": "mL"}, {"measurement": "Improvement in morning trough FEV1 on Day 7 compared with placebo", "setting": "patients with COPD [3]; third of three listed values", "value": 97, "unit": "mL"}]}
